# From patent US20140205662A1, “SYSTEM AND METHOD FOR […] TIMED LOCAL […] OF A COMBINATION PHARMACEUTICAL PREPARATION FOR ORAL THERAPY” (The Research Foundation for The State University of New York, priority 2010, published 2014)
# Tested on: gingival fibroblasts
# Procedure: To determine whether the co-administration of these two compounds was cytotoxic, the following experiments were carried out.
compound,measurement,value
C[C@H]1c2cccc(O)c2C(=O)C2=C(O)[C@]3(O)C(=O)C(C(N)=O)=C(O)[C@@H](N(C)C)[C@@H]3[C@@H](O)[C@@H]21 [doxycycline],cytotoxicity (in words),relatively increasing cytotoxicity with increasing concentration
same,relative cytotoxicity,0 to 0.231 mg/mL
CC(C(=O)O)c1ccc(-c2ccccc2)c(F)c1 (stereo not shown) [flurbiprofen],cytotoxicity (in words),relatively low cytotoxicity
same,relative cytotoxicity,0 to 0.031 mg/mL
